# How the values were obtained:
# fetal porcine ICCs = test: Differentiation of fetal porcine ICCs (glucose stimulated release of insulin), separate experiments; type: cell-based
# From the text: (§1) (3) ICC islets cultured in medium RPMI 1640+10 mm nicotine amide+10% human serum (HS)+9% of 1.5% HPMC in saline+1 mm 2-deoxyglucose (DG).
# [1] = tested on: fibroblast growth in ICC cultures; test: Fibroblast growth in ICC cultures; type: cell-based, porcine; conditions: 1 mM DG
# From the text: as §1
# [2] = tested on: naked mice with induced diabetes; test: Transplantation of cultured ICC in naked mice with alloxan-induced diabetes; type: in vivo; conditions: second series, 1×3 μl ICC; 1 mM DG added to HPMC culture medium
# From the text: Transplantation in Naked Mice with Induced Diabetes
# Diabetes was induced in naked mice by injection of alloxan (Dunn, J S, and McLetchie, Lancet 2 (1943) 384; Boquist L, Acta Pathol. Microbiol. Scand., Sect. A, 88 (1980) 201) resulting in […] within a few days indicated by blood glucose levels >25 mm. After about one week intact ICCs from other mice of this strain were transplanted to the […] anaesthetized animals. An incision was made in the abdominal wall and the left kidney was mobilized. A small hole was made in the kidney's thin […] capsule and a pipette containing ICC was carefully inserted therethrough under the capsule. The ICCs were deposited within the capsule, the pipette withdrawn and the abdominal wall and skin sutured.
# In a first series of experiments an ICC standard dose of 2×3 μl corresponding to 600 ICC was injected. Three types of ICCs were compared:
# (1) control, i.e. ICC islets cultured in medium RPMI 1640+10 mm nicotine amide+10% human serum (HS);
# (2) ICC islets cultured in medium RPMI 1640+10 mm nicotine amide+10% human serum (HS)+9% of 1.5% HPMC in saline; […]
# Numbers in square brackets indicate number of animals. […] Blood glucose was determined on day 7 and in weekly intervals thereafter. The arrow indicates nephrectomy, i.e., the kidney with ICC transplant was removed and blood glucose was determined one week thereafter. […]
compound,measurement,setting,value
"O=CC[C@@H](O)[C@H](O)[C@H](O)CO [DG, 2-deoxyglucose]",Differentiation giving rise to glucose stimulated release of insulin,fetal porcine ICCs,does not affect the differentiation
same,Fibroblast growth,[1],reduces fibroblast growth
same,Effect of DG on the reduction of blood glucose levels,[2],clearly beneficial effect on the reduction of blood glucose levels

# Source: patent US6479283B1, “Stimulation, culture and preservation of pancreatic cells” (Ascendia AB, priority 1997, dated 2002)
